Source: patent US8471005B2 (Cephalon, Inc., priority 2008, dated 2013)
Like-named read-outs stand apart in the source and are kept apart here.

How the values were obtained:
[1] = biological target: T1, JAK2 (Homo sapiens, UniProt O60674); experiment: Recombinant Human JAK2 Kinase Assay (TRF); format: biochemical; details: read-out: JAK2 Potency
T1 construct: host or cells: baculovirus expression system
How it was run: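 Baculovirus-expressed JAK2 (15 ng/ml) phosphorylated a biotinylated 15-mer peptide captured on Neutravidin, in 20 mM HEPES pH 7.2, 0.2 μM ATP, 1 mM MnCl2, 0.1% BSA, 2.5% DMSO final, 20 min at room temperature. Phosphoproduct detected by time-resolved fluorescence with Eu-N1-labelled PY100 antibody.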

[2] = biological target: T2, ALK (Homo sapiens, UniProt Q9UM73); experiment: ALK Kinase Assay (ELISA/TRF, PLC-γ substrate); format: biochemical; details: read-out: ALK Potency
T2 construct: host or cells: baculovirus expression system
T2 sequence (Q9UM73 19-1620): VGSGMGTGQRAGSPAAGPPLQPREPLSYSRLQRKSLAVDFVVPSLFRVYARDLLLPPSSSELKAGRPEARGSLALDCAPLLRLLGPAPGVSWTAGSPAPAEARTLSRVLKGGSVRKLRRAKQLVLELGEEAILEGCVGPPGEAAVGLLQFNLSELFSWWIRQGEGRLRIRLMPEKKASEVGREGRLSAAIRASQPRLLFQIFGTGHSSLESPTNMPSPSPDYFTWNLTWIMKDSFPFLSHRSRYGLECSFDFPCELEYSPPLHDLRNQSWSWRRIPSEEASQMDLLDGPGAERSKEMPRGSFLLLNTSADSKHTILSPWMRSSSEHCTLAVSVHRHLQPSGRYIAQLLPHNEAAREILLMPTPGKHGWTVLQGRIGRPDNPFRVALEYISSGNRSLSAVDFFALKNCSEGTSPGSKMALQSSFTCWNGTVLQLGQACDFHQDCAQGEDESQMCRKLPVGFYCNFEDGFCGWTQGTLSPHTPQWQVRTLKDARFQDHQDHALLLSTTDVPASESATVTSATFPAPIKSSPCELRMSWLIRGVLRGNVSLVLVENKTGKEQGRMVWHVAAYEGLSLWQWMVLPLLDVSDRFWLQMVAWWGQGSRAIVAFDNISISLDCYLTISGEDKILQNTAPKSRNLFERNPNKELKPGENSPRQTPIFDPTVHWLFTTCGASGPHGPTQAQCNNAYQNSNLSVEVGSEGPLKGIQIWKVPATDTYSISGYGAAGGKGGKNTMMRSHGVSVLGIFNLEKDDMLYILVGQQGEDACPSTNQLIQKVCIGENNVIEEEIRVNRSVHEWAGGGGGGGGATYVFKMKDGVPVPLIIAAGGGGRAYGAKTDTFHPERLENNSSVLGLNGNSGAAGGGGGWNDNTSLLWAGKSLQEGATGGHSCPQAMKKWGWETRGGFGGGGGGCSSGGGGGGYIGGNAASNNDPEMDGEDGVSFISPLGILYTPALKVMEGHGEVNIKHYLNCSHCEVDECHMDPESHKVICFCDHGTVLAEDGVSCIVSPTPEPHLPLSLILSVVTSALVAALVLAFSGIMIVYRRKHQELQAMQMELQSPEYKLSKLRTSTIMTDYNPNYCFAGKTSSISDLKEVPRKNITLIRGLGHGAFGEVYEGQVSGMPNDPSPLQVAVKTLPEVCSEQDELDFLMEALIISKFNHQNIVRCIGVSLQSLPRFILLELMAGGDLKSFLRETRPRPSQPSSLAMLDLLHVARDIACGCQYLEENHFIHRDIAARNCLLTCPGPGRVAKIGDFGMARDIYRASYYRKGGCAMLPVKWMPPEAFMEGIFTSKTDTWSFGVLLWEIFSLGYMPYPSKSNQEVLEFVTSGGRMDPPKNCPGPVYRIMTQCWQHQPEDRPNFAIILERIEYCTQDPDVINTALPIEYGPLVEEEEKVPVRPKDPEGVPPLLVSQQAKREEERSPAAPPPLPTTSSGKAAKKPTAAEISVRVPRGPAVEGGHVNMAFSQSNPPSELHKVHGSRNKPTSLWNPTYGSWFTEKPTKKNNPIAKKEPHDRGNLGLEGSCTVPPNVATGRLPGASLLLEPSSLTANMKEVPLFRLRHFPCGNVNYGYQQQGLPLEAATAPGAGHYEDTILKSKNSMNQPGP
How it was run: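 Wells were coated with 10 μg/mL phospholipase C-γ substrate in TBS, and the reaction was started by adding 30 ng/ml ALK enzyme and run at 37° C for 15 minutes. Phosphorylated product was detected with Eu-N1-labeled PT66 antibody, and IC50 values came from sigmoidal variable-slope fits of percent inhibition against log concentration.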

[3] = JAK2 kinase inhibition, 0.2 μM ATP
[4] = ALK kinase inhibition, 1 μM ATP

T1 sequence (O60674 whole entry): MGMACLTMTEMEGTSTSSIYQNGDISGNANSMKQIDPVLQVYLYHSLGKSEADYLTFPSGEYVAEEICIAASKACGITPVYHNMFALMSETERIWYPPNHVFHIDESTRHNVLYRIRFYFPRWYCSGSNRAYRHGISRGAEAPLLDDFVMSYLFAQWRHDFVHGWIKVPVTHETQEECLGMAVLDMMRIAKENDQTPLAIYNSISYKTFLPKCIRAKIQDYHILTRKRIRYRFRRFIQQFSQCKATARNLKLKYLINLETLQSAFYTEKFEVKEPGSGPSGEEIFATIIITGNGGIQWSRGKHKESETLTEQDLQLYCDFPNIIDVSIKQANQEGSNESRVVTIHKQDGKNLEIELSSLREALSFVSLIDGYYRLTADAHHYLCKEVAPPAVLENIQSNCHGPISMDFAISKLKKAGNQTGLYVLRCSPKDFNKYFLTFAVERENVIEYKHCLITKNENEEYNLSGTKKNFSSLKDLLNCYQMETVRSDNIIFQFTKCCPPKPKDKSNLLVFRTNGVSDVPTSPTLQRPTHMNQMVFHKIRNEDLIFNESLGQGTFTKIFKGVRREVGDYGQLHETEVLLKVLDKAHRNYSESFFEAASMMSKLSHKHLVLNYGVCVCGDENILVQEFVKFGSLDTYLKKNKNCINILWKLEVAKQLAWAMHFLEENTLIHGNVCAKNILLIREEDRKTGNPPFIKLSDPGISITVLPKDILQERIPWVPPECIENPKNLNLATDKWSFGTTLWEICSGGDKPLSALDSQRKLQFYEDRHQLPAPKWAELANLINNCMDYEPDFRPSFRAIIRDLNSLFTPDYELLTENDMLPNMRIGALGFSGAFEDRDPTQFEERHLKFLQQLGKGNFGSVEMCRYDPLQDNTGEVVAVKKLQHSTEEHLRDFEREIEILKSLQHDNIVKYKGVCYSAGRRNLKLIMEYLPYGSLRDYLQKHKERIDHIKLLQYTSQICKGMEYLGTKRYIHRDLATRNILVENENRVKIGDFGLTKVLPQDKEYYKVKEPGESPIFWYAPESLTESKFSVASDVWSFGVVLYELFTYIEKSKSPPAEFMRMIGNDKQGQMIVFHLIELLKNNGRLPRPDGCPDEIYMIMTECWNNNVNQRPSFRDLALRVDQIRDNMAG

COc1cc(N2CCCC(N3CCN(C)CC3)C2)ccc1Nc1ncc2ccc(-c3ccccc3OC)n2n1 (single isomer, unassigned) [Example 1442, {2-Methoxy-4-[3-(4-methyl-piperazin-1-yl)-piperidin-1-yl]-phenyl}-[7-(2-methoxy-phenyl)-pyrrolo[2,1-f][1,2,4]triazin-2-yl]-amine]
IC50 ([1]; JAK2 Kinase Inhibition): 100 to 1000 nM
IC50 ([2]; ALK Kinase Inhibition): < 100 nM

CC(C)(C)NS(=O)(=O)c1cccc(-c2ccc3cnc(Nc4ccc5nc[nH]c5c4)nn23)c1 [Example 1299, 3-[2-(3H-Benzimidazol-5-ylamino)-pyrrolo[2,1-f][1,2,4]triazin-7-yl]-N-tert-butyl-benzenesulfonamide]
IC50 [1, 3]: < 100 nM
IC50 [2, 4]: 100 to 1000 nM

COc1cc(C2CCN(C(=O)C3CCN3)CC2)ccc1Nc1ncc2ccc(-c3ccccc3OC)n2n1 (racemic) [Example 862, (±)-Azetidin-2-yl-(4-{3-methoxy-4-[7-(2-methoxy-phenyl)-pyrrolo[2,1-f][1,2,4]triazin-2-ylamino]-phenyl}-piperidin-1-yl)-methanone]
IC50 [1, 3]: 100 to 1000 nM
IC50 [2, 4]: < 100 nM

CN(c1ccccc1-c1ccc2cnc(Nc3cccc(N4CCOCC4)c3)nn12)S(C)(=O)=O [Example 410, N-Methyl-N-{2-[2-(3-morpholin-4-yl-phenylamino)-pyrrolo[2,1-f][1,2,4]triazin-7-yl]-phenyl}-methanesulfonamide]
IC50 ([1]; JAK2 Kinase Inhibition): < 100 nM
IC50 ([2]; ALK Kinase Inhibition): 100 to 1000 nM

C[C@@H](O)CN1CCN(c2cccc(Nc3ncc4ccc(-c5cccc(Cl)c5)n4n3)c2)CC1 [Example 215, (R)-1-(4-{3-[7-(3-Chloro-phenyl)-pyrrolo[2,1-f][1,2,4]triazin-2-ylamino]-phenyl}-piperazin-1-yl)-propan-2-ol]
IC50 ([1]; JAK2 Kinase Inhibition): < 100 nM
IC50 ([2]; ALK Kinase Inhibition): < 100 nM

CN1CCN(c2ccc(Nc3ncc4c(Br)cc(-c5ccc(S(C)(=O)=O)cc5)n4n3)cc2)CC1 [Example 91, [5-Bromo-7-(4-methanesulfonyl-phenyl)-pyrrolo[2,1-f][1,2,4]triazin-2-yl]-[4-(4-methyl-piperazin-1-yl)-phenyl]-amine]
IC50 ([1]; JAK2 Kinase Inhibition): < 100 nM
IC50 ([2]; ALK Kinase Inhibition): 100 to 1000 nM

O=S(=O)(c1cccc(-c2ccc3cnc(Nc4ccc(C5CCN(CCO)CC5)cc4)nn23)c1)N1CCOCC1 [Example 677, 2-[4-(4-{7-[3-(Morpholine-4-sulfonyl)-phenyl]-pyrrolo[2,1-f][1,2,4]triazin-2-ylamino}-phenyl)-piperidin-1-yl]-ethanol]
IC50 [1, 3]: < 100 nM
IC50 [2, 4]: 100 to 1000 nM

COc1cc(C2CCN(CCO)CC2)ccc1Nc1ncc2ccc(-c3ccccc3N(C)S(C)(=O)=O)n2n1 [Example 793, N-[2-(2-{4-[1-(2-Hydroxy-ethyl)-piperidin-4-yl]-2-methoxy-henylamino}-pyrrolo[2,1-f][1,2,4]triazin-7-yl)-phenyl]-N-methyl-methanesulfonamide]
IC50 [1, 3]: 100 to 1000 nM
IC50 [2, 4]: < 100 nM

COc1cc(N2CCC(N3CCOCC3)CC2)c(C)cc1Nc1ncc2ccc(-c3ccccc3OC)n2n1 [Example 539]
IC50 [1, 3]: < 100 nM
IC50 [2, 4]: < 100 nM

COc1cc(C2(C#N)CCC(O)CC2)ccc1Nc1ncc2ccc(-c3ccccc3N(C)S(C)(=O)=O)n2n1 (stereo not drawn) [Example 1253, N-(2-{2-[4-(1-Cyano-4-hydroxy-cyclohexyl)-2-methoxy-phenylamino]-pyrrolo[2,1-f][1,2,4]triazin-7-yl}-phenyl)-N-methyl-methanesulfonamide]
IC50 [1, 3]: 100 to 1000 nM
IC50 [2, 4]: < 100 nM

COc1ccc(CN2CCN(C)CC2)cc1Nc1ncc2ccc(-c3ccccc3OC)n2n1 [Example 495, [2-Methoxy-5-(4-methyl-piperazin-1-ylmethyl)-phenyl]-[7-(2-methoxy-phenyl)-pyrrolo[2,1-f][1,2,4]triazin-2-yl]-amine]
IC50 [1, 3]: < 100 nM
IC50 [2, 4]: 1000 to 10000 nM

COc1cc(N2CCC(N3CCOCC3)CC2)ccc1Nc1ncc2ccc(-c3ccc(Cl)cc3OC)n2n1 [Example 486, [7-(4-Chloro-2-methoxy-phenyl)-pyrrolo[2,1-f][1,2,4]triazin-2-yl]-[2-methoxy-4-(4-morpholin-4-yl-piperidin-1-yl)-phenyl]-amine]
IC50 [1, 3]: < 100 nM
IC50 [2, 4]: < 100 nM
